Assay results: a melting point compilation (Tetko et al.; mined from patent text by program, amines drawn as free bases though some values may be those of a salt)

Row | melting point | Structure (SMILES)
1 | 158 to 160 °C | COC(=O)C(=CNC1CC1)C(=O)C=Cc1ccc2c(c1)OCO2
2 | 132 to 135 °C | CC(=O)N(O)C(C)c1ccc2c(c1)oc1ccccc12 (configuration not stated)
3 | 212 to 214 °C | Nc1c(Br)cc(C2=NNC(=O)CC2)cc1Br
4 | 54 to 64 °C | c1ccc(N2CCN(CCCCc3cccnc3)CC2)nc1
5 | 240 to 241 °C | O=C(O)c1cc(C(=O)O)c2c(c1)C(C(=O)O)CCN2 (configuration not stated)
6 | 99 to 101 °C | CCCCN=C1SC(=CC(=O)O)C(=O)N1CCCC
7 | 158 to 160 °C | CCOCc1nc2c(N)nc(C)c(C)c2n1CCCCS(=O)(=O)N(C)C
8 | 162 to 164 °C | COc1ccc(CN2Cc3cncn3C(c3ccc(-c4ccsc4)cc3)C2=O)cc1 (configuration not stated)
9 | 287 to 289 °C | O=c1nc(-c2c(-c3ccccc3)nn3ccccc23)cc[nH]1
10 | 32 to 34 °C | CCCCCOc1nc(Cl)nc2ccccc12
11 | 240 to 242 °C | CCOCc1nc2c(N)nc3ccccc3c2n1Cc1cc(-c2cccnc2)no1
12 | 242 to 244 °C | CC(=O)Nc1nc(-c2ccc([N+](=O)[O-])cc2)c[nH]1
13 | 100 to 101 °C | O=S(=O)(/C=C\S(=O)(=O)c1ccccc1)c1ccccc1
14 | 181 to 182 °C | Cc1ccccc1-c1cn(-c2ccccc2)c2ncnc(N)c12
15 | 78 to 79 °C | CCc1ccc(OC)c(-c2cc(C(C)(C)C)c(O)c(C(C)(C)C)c2)c1
16 | 177 to 178 °C | O=CC(=Cc1ccccc1Cl)C(C=O)=Cc1ccccc1Cl
17 | 32 to 32.5 °C | CCOC(=O)c1cnc(Cl)cc1Cl
18 | 73 to 74 °C | CCCCc1nc(-c2ccco2)n[nH]1
19 | 128 to 130 °C | CC(C)NC1=NS(=O)(=O)c2cc(C(C)(C)C)ccc2N1
20 | 145 to 147 °C | Nc1nc(COCC(F)(F)F)nc2nccnc12
21 | 230 to 231 °C | O=c1c2ccccc2nc(-c2cc(-c3ccncc3)c(N3CCOCC3)s2)n1-c1ccccc1
22 | > 250 °C | Cc1nc(N)c2nc(CO)n(NC3CCCCC3)c2c1C
23 | 93 to 96 °C | CC1(C)Oc2ccc3nc(C#N)ccc3c2C(NCCc2ccccc2)C1O (configuration not stated)

Row | melting point | Structure (SMILES)
24 | 148 to 150 °C | Cc1cccc(C(=O)O)c1NC(=S)Cc1ccccc1
25 | 171 to 172 °C | O=C(O)c1cn(C2CC2)c2c(F)c(N3CCOC(CN4CCOCC4)C3)c(F)cc2c1=O (configuration not stated)
26 | 147 to 149 °C | CCc1nc2ccc(Cl)cc2c(=O)n1CCCn1ccnc1
27 | 89 to 91 °C | COc1ccnc(CCc2ccnc(N)c2N)c1
28 | 138 to 140 °C | Cc1ccc(S(=O)(=O)Nc2ccc([C@@H](C)C(N)=O)cc2)cc1
29 | 115 to 116 °C | COc1ncccc1NC(=NC#N)NC(NC(=O)c1cccc(Cl)c1)C(C)(Cl)Cl (configuration not stated)
30 | 180 to 182 °C | CC12CC(N3CCC4(CC3)OCCO4)C(O)CC1CCC1C2CCC2(C)C(O)C(N3CCC4(CC3)OCCO4)CC12 (configuration not stated)
31 | 98 to 100 °C | c1cn(CCCOc2ccc(-c3noc(C4CC4)n3)cc2)cn1
32 | 195 to 197 °C | COc1cc(OCc2ccccn2)ccc1/C=C/c1cc(/C=C/c2ccc(OCc3ccccn3)cc2OC)[nH]n1
33 | 239 to 240 °C | CN1CCN(c2ccc(Nc3nc(N)c(C(=O)c4c(Cl)cc(C(F)(F)F)cc4Cl)s3)cc2)CC1
34 | 106 to 107 °C | CC(C)C(=O)N(CCCCCC(=O)O)C(c1ccccc1)c1ccccc1
35 | 61 to 63 °C | Fc1ccc(-c2ncnc(C(F)(F)F)c2Cl)c(F)c1
36 | 76 to 83 °C | COC(=O)c1ccc(C(F)(F)F)nc1S(=O)(=O)NC(C)(C)C
37 | 84.1 to 95.5 °C | COC(=O)c1c(Cc2ccc(C(=O)NC(C)(C)CC(=O)N(C)C)cc2)c(=O)c2ccc(Cl)cc2n1-c1ccccc1
38 | 192 to 194 °C | CC(c1ccc(F)c(F)c1F)n1ncc(-c2ccc(S(N)(=O)=O)cc2)c(-c2ccc(F)cc2)c1=O (configuration not stated)
39 | 190 to 192 °C | Cc1cccc2c1nc(COc1ccc(Cl)cc1)n2CCC(Cc1ccccc1)C(=O)O (configuration not stated)
40 | 84 to 84.5 °C | CCCCCOc1ccc(CC(C)C(=O)Oc2ccc(-c3ccc(CCC)cc3)cc2)cc1 (configuration not stated)
41 | 177 to 179 °C | COc1ccc(-c2nc(Sc3ccncc3)[nH]c2-c2ccc(OC)cc2)cc1
42 | 136 °C | CCn1cnc2c(Nc3cccc(F)c3)nc(Cl)nc21
43 | 238 to 240 °C | CC(C)(C)c1ccc(C(=O)NCc2ccc3c(c2)CN(C2CCC(=O)NC2=O)C3=O)cc1 (configuration not stated)
44 | 120 to 123 °C | CSC(=NC#N)NCCSCc1cccnc1Nc1ccccc1
45 | 96 to 97 °C | Cc1ccc(-c2c(C#N)cnc3ccccc23)cc1
46 | 166 to 168 °C | O=C(O)[C@H](Cc1ccsc1)NN1C(=O)c2ccccc2C1=O

Row | melting point | Structure (SMILES)
47 | 238 °C | CC1CC(C(=O)Nc2ccccc2)(C(=O)OC(C)(C)C)N(C(=O)CNC(=O)Nc2cccc(C(=O)O)c2)C1c1ccccc1 (configuration not stated)
48 | 110 to 112 °C | CCCN(Cc1ccc(-c2ccccc2-c2nnnn2C(c2ccccc2)(c2ccccc2)c2ccccc2)cc1)c1nc(C)cnc1C(=O)OCC
49 | 98 to 99 °C | O=C(c1ccc(Cl)cc1)C(Cc1ccc(Cl)cc1)c1cccnc1 (configuration not stated)
50 | 136 to 137 °C | Cc1nc(CN2C(=O)C3(COc4cc5c(cc43)OCO5)c3ccccc32)c(C(F)(F)F)o1 (configuration not stated)
51 | > 300 °C | CC(=O)Nc1cc(-c2ccncc2)c[nH]c1=O
52 | 136 to 137 °C | CCOC(=O)C1=C(C)NC(C#N)=C(C(=O)OCC)C1c1ccccc1Cl (configuration not stated)
53 | 146 to 148 °C | Cc1cc(OCc2ccc(-c3ccc(OC(F)(F)F)cc3)nc2)ccc1OC(C)(C)C(=O)O
54 | 72.1 to 72.9 °C | COC(=O)C(C)OC(=O)Cc1cc(Oc2ccc(C(F)(F)F)cc2Cl)ccc1[N+](=O)[O-] (configuration not stated)
55 | 63 to 66 °C | COc1cccc2c1OCN(CCc1ccccc1)C2
56 | 165 to 166 °C | Cn1cc(-c2ccnc(Cl)n2)c(-c2ccc(Cl)cc2Cl)n1
57 | 88 °C | O=C(CCCCCBr)N1Cc2ccccc2C1
58 | 190 to 192 °C | c1ccc2c(c1)CCONC2
59 | 217 °C | O=C(Nc1ncc(C(F)(F)F)o1)C1c2ccccc2Oc2ccc(F)cc21 (racemic)
60 | 256 to 258 °C | CS(=O)(=O)Nc1ccc(C(=O)O)c(Cl)c1
61 | 75 to 76 °C | COc1ccc(C=CCC#N)cc1
62 | 73.5 to 75 °C | CC(=O)Oc1cc(C(C)C)c(OC(C)=O)c(C(C)C)c1
63 | 301 to 304 °C | Cc1cc(-c2ccccc2)c(C)cc1-c1ccccc1
64 | 123 to 125 °C | CC(=O)c1ccc(OC(C)(C)C(=O)O)c(Cl)c1
65 | 97 to 100 °C | CS(=O)(=O)c1ccc(-c2cnn(C3Cc4ccccc4C3)c(=O)c2-c2ccc(F)cc2)cc1
66 | 181 to 183 °C | CC(C)(C)N(NC(=O)c1cnccn1)C(=O)c1ccccc1
67 | 113 to 115 °C | CC(C)Cn1c(CCCCNC(=O)Nc2ccccc2)nc2c(N)nc3ccccc3c21
68 | 173 °C | c1ccc2c3c([nH]c2c1)C(c1ccc2c(c1)OCO2)NCC3 (configuration not stated)

Row | Structure (SMILES) | melting point
69 | COC(=O)[C@@H]1C[C@H](NC(C)=O)C(=O)[C@H]2[C@@]1(C)CC[C@H]1C(=O)O[C@H](c3ccoc3)C[C@]21C | 222 to 224 °C
70 | O=C(O)c1cccnc1N1CCN(CCOC2c3ccccc3CSc3ccccc32)CC1 (configuration not stated) | 217 to 218 °C
71 | COC(=O)c1ccc(CC(C)NCC(O)c2cccc(Cl)c2)cc1 (configuration not stated) | 94 to 96 °C
72 | CCc1cc2c(s1)N(C(=O)N(C)C)CCN=C2c1ccccc1 | 237 to 238 °C
